Results: patent US8394787B2, “7-aza-spiro[3.5]nonane-7-carboxylate derivatives, preparation thereof and therapeutic use thereof” (Sanofi, priority 2009, dated 2013)
Where a name gives a salt, the structure may show the parent alone.

system: not given; assay: not given; conditions: not given

**Q.** Which melting point does the source give for `NC(=O)c1cc(COC(=O)N2CCC3(CC(Oc4ccc(-c5ccc(F)cc5)cc4)C3)C2)on1` (single isomer, unassigned) [Compound 28, 3-carbamoyl-isoxazol-5-ylmethyl 2-(4′-fluorobiphenyl-4-yloxy)-6-aza-spiro[3.4]octane-6-carboxylate] here?
**A.** Its melting point is 131 to 133 °C.

**Q.** With `NC(=O)c1cc(COC(=O)N2CCC3(CC2)CC(Oc2ccc(-c4ccc(F)cc4)cc2)C3)on1` [Compound 18, 3-carbamoyl-isoxazol-5-ylmethyl 2-(4′-fluorobiphenyl-4-yloxy)-7-aza-spiro[3.5]nonane-7-carboxylate] as the compound, how does the melting point read?
**A.** The melting point was 163 to 165 °C.

**Q.** For `CNC(=O)c1cc(COC(=O)N2CCC3(CC(Oc4ccc(Cl)c5ccccc45)C3)C2)on1` (single isomer, unassigned) [Compound 31, 3-methylcarbamoyl-isoxazol-5-ylmethyl 2-(4-chloronaphthalen-1-yloxy)-6-aza-spiro[3.4]octane-6-carboxylate], which melting point is on record?
**A.** Its melting point is 87 to 92 °C.

**Q.** Which melting point does the source give for `CNC(=O)c1cc(COC(=O)N2CCC3(CC2)CC(Oc2ccc(Cl)c4ccccc24)C3)on1` [Compound 17, 3-methylcarbamoyl-isoxazol-5-ylmethyl 2-(4-chloronaphthalen-1-yloxy)-7-aza-spiro[3.5]nonane-7-carboxylate] here?
**A.** The melting point was 62 to 64 °C.

**Q.** With `CNC(=O)c1cc(COC(=O)N2CCC3(CC(Oc4ccc(-c5ccc(F)cc5)cc4)C3)C2)on1` (single isomer, unassigned) [Compound 29, 3-methylcarbamoyl-isoxazol-5-ylmethyl 2-(4′-fluorobiphenyl-4-yloxy)-6-aza-spiro[3.4]octane-6-carboxylate] as the compound, how does the melting point read?
**A.** Its melting point is 135 to 137 °C.

**Q.** With `CNC(=O)c1cc(COC(=O)N2CCC3(CC2)CC(Oc2ccc(Cl)cc2)C3)on1` [Compound 3, 3-methylcarbamoyl-isoxazol-5-ylmethyl 2-(4-chlorophenoxy)-7-aza-spiro[3.5]nonane-7-carboxylate] as the compound, how does the melting point read?
**A.** The melting point was 147 to 149 °C.

**Q.** For `Cn1ncnc1COC(=O)N1CCC2(CC1)CC(Oc1ccc(Cl)cc1)C2` (as salt: HCl), which melting point is on record?
**A.** The melting point was 163 to 165 °C.

**Q.** Which melting point does the source give for `CCOc1ccc2ccc(OC3CC4(CCN(C(=O)OCc5cc(C(=O)NC)no5)CC4)C3)cc2c1` [Compound 8, 3-methylcarbamoyl-isoxazol-5-ylmethyl 2-(7-ethoxynaphthalen-2-yloxy)-7-aza-spiro[3.5]nonane-7-carboxylate] here?
**A.** Its melting point is 73 to 75 °C.

**Q.** Which melting point does the source give for `CNC(=O)c1cc(COC(=O)N2CCC3(CC2)CC(Oc2ccc(Cl)c(F)c2)C3)on1` [Compound 22, 3-methylcarbamoyl-isoxazol-5-ylmethyl 2-(4-chloro-3-fluorophenoxy)-7-aza-spiro[3.5]nonane-7-carboxylate] here?
**A.** Its melting point is 107 to 108 °C.

**Q.** With `NC(=O)c1cc(COC(=O)N2CCC3(CC2)CC(Oc2ccc(Cl)cc2)C3)on1` [Compound 4, 3-carbamoyl-isoxazol-5-ylmethyl 2-(4-chlorophenoxy)-7-aza-spiro[3.5]nonane-7-carboxylate] as the compound, how does the melting point read?
**A.** The melting point was 70 to 72 °C.

**Q.** With `NC(=O)c1cc(COC(=O)N2CC3(CC(Oc4ccc(Cl)c(F)c4)C3)C2)on1` [Compound 24, 3-carbamoyl-isoxazol-5-ylmethyl 6-(4-chloro-3-fluorophenoxy)-2-aza-spiro[3.3]heptane-2-carboxylate] as the compound, how does the melting point read?
**A.** The melting point was 135 to 137 °C.

**Q.** Which melting point does the source give for `CNC(=O)c1cc(COC(=O)N2CCC3(CC(Oc4ccc(Cl)cc4)C3)C2)on1` (single isomer, unassigned) here?
**A.** The melting point was 94 to 97 °C.

**Q.** Which melting point does the source give for `CNC(=O)c1cc(COC(=O)N2CCC3(CC2)CC(Oc2ccc4ccncc4c2)C3)on1` [Compound 21, 3-methylcarbamoyl-isoxazol-5-ylmethyl 2-(isoquinolin-7-yloxy)-7-aza-spiro[3.5]nonane-7-carboxylate] here?
**A.** Its melting point is 79 to 81 °C.

**Q.** Which melting point does the source give for `CCOc1ccc2ccc(OC3CC4(CCN(C(=O)OCc5cc(C(N)=O)no5)CC4)C3)cc2c1` [Compound 13, 3-carbamoyl-isoxazol-5-ylmethyl 2-(7-ethoxynaphthalen-2-yloxy)-7-aza-spiro[3.5]nonane-7-carboxylate] here?
**A.** The melting point was 114 to 116 °C.

**Q.** Which melting point does the source give for `CNC(=O)c1csc(COC(=O)N2CCC3(CC2)CC(Oc2cccc(-c4ccc(F)cc4)c2)C3)n1` [Compound 20, 4-methylcarbamoyl-thiazol-2-ylmethyl 2-(4′-fluorobiphenyl-3-yloxy)-7-aza-spiro[3.5]nonane-7-carboxylate] here?
**A.** The melting point was 130 to 132 °C.

**Q.** Which melting point does the source give for `CNC(=O)c1cc(COC(=O)N2CCC3(CC(Oc4ccc(-c5ccc(F)cc5)cc4)C3)C2)on1` (single isomer, unassigned) [Compound 32, 3-methylcarbamoyl-isoxazol-5-ylmethyl 2-(4′-fluorobiphenyl-4-yloxy)-6-aza-spiro[3.4]octane-6-carboxylate] here?
**A.** Its melting point is 149 to 151 °C.

**Q.** For `NC(=O)c1cc(COC(=O)N2CCC3(CC(Oc4ccc(Cl)c5ccccc45)C3)C2)on1` (single isomer, unassigned) [Compound 30, 3-carbamoyl-isoxazol-5-ylmethyl 2-(4-chloronaphthalen-1-yloxy)-6-aza-spiro[3.4]octane-6-carboxylate], which melting point is on record?
**A.** Its melting point is 149 to 150 °C.

**Q.** With `CNC(=O)c1cc(COC(=O)N2CCC3(CC(Oc4ccc(-c5ccc(F)cc5)cc4)C3)C2)on1` (single isomer, unassigned) [Compound 33, 3-methylcarbamoyl-isoxazol-5-ylmethyl 2-(4′-fluorobiphenyl-4-yloxy)-6-aza-spiro[3.4]octane-6-carboxylate] as the compound, how does the melting point read?
**A.** The melting point was 150 to 152 °C.

**Q.** For `NC(=O)c1coc(COC(=O)N2CCC3(CC(Oc4cccc(C(F)(F)F)c4)C3)C2)n1` (single isomer, unassigned) [Compound 14, 4-carbamoyl-oxazol-2-ylmethyl 2-(3-trifluoromethylphenoxy)-6-aza-spiro[3.4]octane-6-carboxylate], which melting point is on record?
**A.** The melting point was 90 to 92 °C.

**Q.** Which melting point does the source give for `NC(=O)c1cc(COC(=O)N2CCC3(CC2)CC(Oc2ccc(Cl)c4ccccc24)C3)on1` [Compound 16, 3-carbamoyl-isoxazol-5-ylmethyl 2-(4-chloronaphthalen-1-yloxy)-7-aza-spiro[3.5]nonane-7-carboxylate] here?
**A.** Its melting point is 75 to 77 °C.

**Q.** Which melting point does the source give for `NC(=O)c1cc(COC(=O)N2CCC3(CC2)CC(Oc2cccc(-c4ccc(F)cc4)c2)C3)on1` [Compound 12, 3-carbamoyl-isoxazol-5-ylmethyl 2-(4′-fluorobiphenyl-3-yloxy)-7-aza-spiro[3.5]nonane-7-carboxylate] here?
**A.** The melting point was 74 to 76 °C.

**Q.** For `NC(=O)c1cc(COC(=O)N2CCC3(CC(Oc4ccc(Cl)c(F)c4)C3)C2)on1` (single isomer, unassigned) [Compound 26, 3-carbamoyl-isoxazol-5-ylmethyl 2-(4-chloro-3-fluorophenoxy)-6-aza-spiro[3.4]octane-6-carboxylate], which melting point is on record?
**A.** Its melting point is 83 to 92 °C.

**Q.** For `O=C(OCc1cscn1)N1CCC2(CC1)CC(Oc1ccc(Cl)cc1)C2`, which melting point is on record?
**A.** The melting point was 86 to 88 °C.

**Q.** Which melting point does the source give for `CNC(=O)c1cc(COC(=O)N2CC3(CC(Oc4ccc(Cl)c(F)c4)C3)C2)on1` [Compound 23, 3-methylcarbamoyl-isoxazol-5-ylmethyl 6-(4-chloro-3-fluorophenoxy)-2-aza-spiro[3.3]heptane-2-carboxylate] here?
**A.** The melting point was 84 to 86 °C.

target: T1, enzyme FAAH (Fatty Acid Amide Hydrolase) (Mus musculus, UniProt O08914); assay: FAAH radio-enzymatic test, hydrolysis of [1-3H ethanolamine] anandamide (protocol 1); assay type: biochemical; conditions: mouse brain membrane homogenate, anandamide 10 μM, 20 mins preincubation at 25° C., read-out: IC50 (concentration inhibiting 50% of the control enzymatic activity of FAAH)
T1 construct: The membrane homogenates are prepared extemporaneously by homogenizing the tissues; from tissue; host or cells: mouse brain (minus the cerebellum), homogenate
T1 sequence (O08914 1-579): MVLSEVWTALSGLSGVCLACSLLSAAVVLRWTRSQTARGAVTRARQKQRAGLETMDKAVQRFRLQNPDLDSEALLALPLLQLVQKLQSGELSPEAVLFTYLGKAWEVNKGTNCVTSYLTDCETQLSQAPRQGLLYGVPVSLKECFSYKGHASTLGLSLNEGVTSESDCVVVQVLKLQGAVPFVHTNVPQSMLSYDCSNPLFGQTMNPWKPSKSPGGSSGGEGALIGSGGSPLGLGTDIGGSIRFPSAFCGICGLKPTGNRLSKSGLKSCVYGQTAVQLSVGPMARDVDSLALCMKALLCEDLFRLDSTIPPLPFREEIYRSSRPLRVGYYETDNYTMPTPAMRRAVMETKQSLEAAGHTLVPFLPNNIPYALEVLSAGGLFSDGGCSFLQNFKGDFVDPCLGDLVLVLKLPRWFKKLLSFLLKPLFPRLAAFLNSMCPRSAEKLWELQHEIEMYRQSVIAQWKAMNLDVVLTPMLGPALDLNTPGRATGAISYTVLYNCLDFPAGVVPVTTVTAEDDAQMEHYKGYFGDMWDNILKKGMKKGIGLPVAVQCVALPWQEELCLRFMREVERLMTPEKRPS
Method: The compounds of the invention were subjected to pharmacological tests to determine their inhibitory effect on the enzyme FAAH (Fatty Acid Amide Hydrolase).
Thus, mouse brains (minus the cerebellum) are removed and stored at −80° C. The membrane homogenates are prepared extemporaneously by homogenizing the tissues using a Precellys® machine in the reaction buffer (10 mM Tris-HCl, pH=8, 150 mM NaCl and 1 mM ethylenediaminetetraacetic acid (EDTA)). The enzymatic reaction is performed in 96-well Multiscreen filtration plates in a final volume of 70 μl. Reaction buffer supplemented with fatty acid-free bovine serum albumin (BSA, 1 mg/ml) is used for the enzymatic reaction and the dilution of the compounds and the [1-^3H ethanol-amine] anandamide. The reaction buffer containing BSA (43 μl/well), the diluted test compounds at different concentrations (7 μl/well containing 1% DMSO) and the membrane preparation (10 μl/well, i.e. 200 μg of tissue per test) are successively added to the wells. After preincubation of the compounds with the enzyme at 25° C. for 20 mins, the reaction is started by adding [1-^3H ethanolamine] anandamide. (Specific activity 15-20 Ci/mmol) diluted with cold anandamide (10 μl/well, final concentration 10 μM, 0.01 μCi per test). After incubation for 20 mins at 25° C., the enzymatic reaction is stopped by addition of a […] solution of active charcoal prepared in 1.5M NaCl and 0.5M HCl buffer (50 μl/well). The mixture is stirred for 10 mins and the aqueous phase containing the [1-^3H]ethanolamine is then recovered by filtration under vacuum and counted by liquid scintillation.

**Q.** With `CNC(=O)c1cc(COC(=O)N2CCC3(CC(Oc4ccc(-c5ccc(F)cc5)cc4)C3)C2)on1` (single isomer, unassigned) [Compound 29, 3-methylcarbamoyl-isoxazol-5-ylmethyl 2-(4′-fluorobiphenyl-4-yloxy)-6-aza-spiro[3.4]octane-6-carboxylate] as the compound, how does the IC50 read?
**A.** Its IC50 is 0.0053 µM.

**Q.** With `CNC(=O)c1cc(COC(=O)N2CCC3(CC(Oc4ccc(-c5ccc(F)cc5)cc4)C3)C2)on1` (single isomer, unassigned) [Compound 32, 3-methylcarbamoyl-isoxazol-5-ylmethyl 2-(4′-fluorobiphenyl-4-yloxy)-6-aza-spiro[3.4]octane-6-carboxylate] as the compound, how does the IC50 read?
**A.** Its IC50 is 0.003 µM.

**Q.** For `CNC(=O)c1cc(COC(=O)N2CCC3(CC2)CC(Oc2cccc(-c4ccc(F)cc4)c2)C3)on1` [Compound 7, 3-methylcarbamoyl-isoxazol-5-ylmethyl 2-(4′-fluorobiphenyl-3-yloxy)-7-aza-spiro[3.5]nonane-7-carboxylate], which IC50 is on record?
**A.** The IC50 was 0.019 µM.

**Q.** For `CNC(=O)c1cc(COC(=O)N2CCC3(CC(Oc4ccc(-c5ccc(F)cc5)cc4)C3)C2)on1` (single isomer, unassigned) [Compound 33, 3-methylcarbamoyl-isoxazol-5-ylmethyl 2-(4′-fluorobiphenyl-4-yloxy)-6-aza-spiro[3.4]octane-6-carboxylate], which IC50 is on record?
**A.** The IC50 was 0.019 µM.
